Experimental findings from patent publication US9045563B2, “CXC chemokine receptor 4 (CXCR4) antagonistic polypeptide” (priority 2007, dated 2015) are described below.

The target in one experiment is T1, CXCR1 (Homo sapiens, UniProt P25024).
T1 sequence (P25024 1-350): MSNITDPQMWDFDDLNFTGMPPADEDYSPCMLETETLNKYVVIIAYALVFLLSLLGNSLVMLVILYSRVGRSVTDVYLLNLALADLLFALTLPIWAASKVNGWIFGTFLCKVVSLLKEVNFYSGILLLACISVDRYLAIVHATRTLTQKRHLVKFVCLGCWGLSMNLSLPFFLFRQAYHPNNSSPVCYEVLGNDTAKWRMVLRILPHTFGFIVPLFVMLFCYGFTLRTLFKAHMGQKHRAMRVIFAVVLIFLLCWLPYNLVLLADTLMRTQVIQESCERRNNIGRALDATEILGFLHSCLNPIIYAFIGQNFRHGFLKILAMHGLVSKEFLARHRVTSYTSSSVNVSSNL
As to the kind of experiment: Ca2+ mobilization in HEK EGFP-CXCR1 cells (indo-1). The conditions noted are these: 50 μM peptide.

The target in the next experiment is CXCR4 (Homo sapiens, UniProt P61073). As to the kind of experiment: CXCR4 internalization, confocal microscopy of HEK cells expressing EGFP-CXCR4. The format is cell-based. The conditions noted are these: 30 min, 37° C. More on the design: expressed in transfected cells; host or cells: HEK293. An excerpt:
Upon stimulation with the appropriate chemokine, numerous G-protein-coupled receptors get internalized by clathrin-coated pits. As an antagonist of CXCR4 responses, ALB 408-423 may also alter chemokine induced CXCR4 receptor internalization. To analyze the antagonistic properties of ALB408-423 on CXCL12 mediated CXCR4 internalization, EGFP-CXCR4 receptor expressing cells were split and grown for 2 days in 24-well plates on 12-mm glass coverslips coated with rat type I collagen. The cells were then incubated for periods ranging from 0 to 30 min in HEPES-BSA buffer supplemented with protease inhibitors containing either 100 nM CXCL12 or 50 μM of ALB408-423 or 100 nM CXCL12 plus 50 μM of ALB408-423 at 37° C. […] Cells were then analyzed with an inverted microscope (LEICA) and a laser scanning confocal imaging system (LEICA AOBS SP2 MP) using a HCX PL APO 1bd.BL 63X 1.40 OIL UV objective (n° 506192). […] EGFP was excited with the 488 nm laser-line of the Argon laser and detected and amplified by one photomultiplier tube (PMT) in the so-called mCFP Channel from 495 to 550 nm (PMT1 610 High Voltage -HV-, offset 0). […]
FIG. 15. […] Receptor endocytosis was monitored on HEK cells expressing EGFP-CXCR4 and analyzed by confocal microscopy immediately (0 min, upper panel) after addition of CXCL12, ALB408-423 or both compounds, or 30 min later (lower panel). […]

A further experiment deals with X4 tropic HIV-1 NL4-3. Briefly: X4 tropic HIV-1 infection and replication in PBMC, p24 antigen ELISA. The format is cell-based. The conditions noted are these: 100 μM peptide, day 6 post infection. As to the method:
To analyze the effect of ALB408-423 and derivatives thereof in relevant primary cells, peripheral blood mononuclear cells were isolated from Buffy coat derived from the DRK-Blutspendedienst Baden-Württemberg-Hessen using Ficoll density centrifugation. 1×10^6 PBMC per ml were stimulated with 1 μg/ml phytohemagglutinine (PHA, Oxoid, #3085280) and 10 ng/ml Interleukin 2 (IL-2, Strathmann, #9511192) for three days. Thereafter cells were pelleted and resuspended in IL-2 containing medium. 1.5×10^5 PBMC (250 μl) were seeded in 96 well dishes, peptides were added and cells were infected with […] p24 antigen of X4 tropic HIV-1 NL4-3. Supernatants containing progeny virus were taken at day 1, 3 and 6 post infection. Virus production was measured by p24 antigen ELISA (SAIC-Frederick, Inc [AIDS & Cancer virus program]). […] In the presence of 20 μM peptides virus replication was severely impaired.
FIG. 11. ALB408-423 and derivatives inhibit X4 tropic HIV-1 infection of peripheral blood mononuclear cells (PBMC). Cells were incubated with indicated concentrations of ALB408-423 or truncated variants and infected with X4 tropic HIV-1. Supernatants obtained after 6 days were analyzed by p24 ELISA. Shown are mean p24 antigen values (ng/ml) derived from triplicate infections±standard deviation.

Ends that are not written are not given here.

Chain of CXCR4 (P61073 whole entry): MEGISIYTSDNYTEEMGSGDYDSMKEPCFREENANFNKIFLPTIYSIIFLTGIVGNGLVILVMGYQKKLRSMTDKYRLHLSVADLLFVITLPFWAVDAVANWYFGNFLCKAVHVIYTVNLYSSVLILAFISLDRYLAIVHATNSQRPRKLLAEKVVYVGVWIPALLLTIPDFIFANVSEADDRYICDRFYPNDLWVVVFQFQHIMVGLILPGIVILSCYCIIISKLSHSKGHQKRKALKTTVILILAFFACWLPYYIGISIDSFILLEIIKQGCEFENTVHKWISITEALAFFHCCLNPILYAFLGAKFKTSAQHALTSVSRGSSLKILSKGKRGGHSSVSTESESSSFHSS
Description for CXCR1: Intracellular Ca^2+ release measurement was carried out as described (Palanche et al., 2001, JBC 276:34853-34861; Vollmer et al., 1999, JBC 274:37915-37922) using indo-1 acetoxymethyl ester as the calcium probe. Cellular responses were recorded at 37° C. in stirred 1 mL cuvette with excitation set at 355 nm and emission set at 405 nm and 475 nm using a spectrofluorimeter. The human chemokines CCL5 and CXCL8 were purchased from Becton Dickinson Biosciences (San Jose, Calif.).
Intracellular Ca^2+ responses were measured using a spectrofluorimeter.
Values shown are mean calcium peak responses from duplicate experiments relative to chemokine only treated cells (100%).
Ca^2+ responses were recorded. […] In order to gain insight into compound selectivity, we next characterized the effect of the peptide on calcium responses of various chemokine/receptor pairs.

On to “LVRYTKKVPQVSTPTL [ALB408-423, LVRYTKKVPQVSTPTL]”, for which the “effect on CXCL8-evoked calcium responses” value on CXCR1 (HEK EGFP-CXCR1 cells) is listed as “no effect”. The “agonism: calcium response induced by the peptide alone, CXCR1” value on CXCR1 (no chemokine) is reported as “does not induce any calcium response”. Further, the “effect on CXCL12 mediated CXCR4 internalization” value at CXCR4 (100 nM CXCL12 plus 50 μM peptide) was “blocked CXCL12 mediated CXCR4 internalization”. The “CXCR4 internalization by the peptide alone” value at CXCR4 (50 μM) is given as “did not induce internalization of the receptor”. For the same sequence, the “p24 antigen in supernatants” value in the experiment on X4 tropic HIV-1 NL4-3 was “No p24 antigen could be detected”.
